Measured values from patent US20260365670A1, “EGFR INHIBITORS AND USES THEREOF” (DIZAL (JIANGSU) PHARMACEUTICAL CO., LTD., priority 2022, published 2026).
Read-outs that look alike come from different tables or passages of the source.

Experiments:
PC-9 = assay: Cell proliferation assay, PC-9 cells (CellTiter-Glo, 72 hours); type: cell-based; details: PC9 cells, CellTiter-Glo, read-out: PC9 GI50
In short: (§1)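 Ba/F3 cells (5000/well) and PC-9 cells (500/well, RPMI1640 with 10% FBS) were plated overnight and then dosed with a compound concentration series. Viable cells were read at day 0 (G0) and after treatment (G3). GI50 came from curve fits of G0-corrected proliferation relative to DMSO.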

[1] = test system: Ba/F3 cells expressing EGFR mutations; assay: Cell proliferation assay, Ba/F3 cells expressing EGFR mutations (CellTiter-Glo, 72 hours); type: cell-based; details: CellTiter-Glo
In short: as §1

EGFR[T790M/C797S/L858R] = target: T1, EGFR[T790M/C797S/L858R] (Homo sapiens, UniProt P00533, C797S/L858R/T790M); assay: Inhibition of EGFR[T790M/C797S/L858R] biochemical enzymatic activity (HTRF); details: EGFR T790M-C797S-L858R, 1 mM ATP, 1 h, room temperature, read-out: IC50 (nM) @T790M- C797S - L858R
T1 construct: purchased Carna Bio
In short: (§2)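 Read-out is the HTRF 665/615 nm ratio (excitation 320 nm), taken as proportional to kinase activity after a 1 h room-temperature reaction with 1 mM ATP and 1 μM biotinylated TK substrate. IC50 values derive from four-parameter logistic fitting.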

A-431 = assay: Cell proliferation GI50, A-431 cells (Table 6); type: cell-based
EGFR Exon19Del/T790M = target: T2, EGFR Exon19Del/T790M (Homo sapiens, UniProt P00533, DEL746-750/T790M); assay: Inhibition of EGFR Exon19Del/T790M biochemical enzymatic activity (HTRF); details: EGFR Del19-T790M, 1 mM ATP, 1 h, room temperature, read-out: IC50 (nM) @Del19-T790M
T2 construct: purchased Carna Bio
T2 sequence (P00533 with tags, fused parts or gaps DEL746-750/T790M limits assumed): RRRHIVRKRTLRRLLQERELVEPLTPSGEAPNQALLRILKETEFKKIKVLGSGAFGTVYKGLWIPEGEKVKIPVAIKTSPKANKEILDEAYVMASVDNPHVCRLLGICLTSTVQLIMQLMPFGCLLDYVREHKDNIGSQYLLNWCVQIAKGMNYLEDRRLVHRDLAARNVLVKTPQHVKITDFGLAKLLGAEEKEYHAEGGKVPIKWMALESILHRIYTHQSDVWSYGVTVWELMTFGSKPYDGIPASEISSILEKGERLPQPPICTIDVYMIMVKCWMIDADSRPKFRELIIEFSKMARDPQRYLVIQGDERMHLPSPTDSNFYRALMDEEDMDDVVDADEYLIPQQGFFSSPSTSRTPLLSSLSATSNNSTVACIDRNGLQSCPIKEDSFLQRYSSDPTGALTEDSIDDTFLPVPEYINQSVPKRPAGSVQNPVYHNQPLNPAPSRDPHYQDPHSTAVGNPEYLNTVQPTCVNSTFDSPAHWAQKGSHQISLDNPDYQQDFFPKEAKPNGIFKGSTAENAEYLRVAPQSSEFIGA
In short: as §2

EGFR (C797S L858R) = target: T3, EGFR (C797S L858R) (Homo sapiens, UniProt P00533, C797S/L858R); assay: Inhibition of EGFR (C797S L858R) biochemical enzymatic activity (HTRF); details: EGFR L858-C797S, 1 mM ATP, 1 h, room temperature, read-out: IC50 (nM) @L858-C797S
T3 construct: purchased signalchem
T3 sequence (P00533 25-1210 C797S/L858R): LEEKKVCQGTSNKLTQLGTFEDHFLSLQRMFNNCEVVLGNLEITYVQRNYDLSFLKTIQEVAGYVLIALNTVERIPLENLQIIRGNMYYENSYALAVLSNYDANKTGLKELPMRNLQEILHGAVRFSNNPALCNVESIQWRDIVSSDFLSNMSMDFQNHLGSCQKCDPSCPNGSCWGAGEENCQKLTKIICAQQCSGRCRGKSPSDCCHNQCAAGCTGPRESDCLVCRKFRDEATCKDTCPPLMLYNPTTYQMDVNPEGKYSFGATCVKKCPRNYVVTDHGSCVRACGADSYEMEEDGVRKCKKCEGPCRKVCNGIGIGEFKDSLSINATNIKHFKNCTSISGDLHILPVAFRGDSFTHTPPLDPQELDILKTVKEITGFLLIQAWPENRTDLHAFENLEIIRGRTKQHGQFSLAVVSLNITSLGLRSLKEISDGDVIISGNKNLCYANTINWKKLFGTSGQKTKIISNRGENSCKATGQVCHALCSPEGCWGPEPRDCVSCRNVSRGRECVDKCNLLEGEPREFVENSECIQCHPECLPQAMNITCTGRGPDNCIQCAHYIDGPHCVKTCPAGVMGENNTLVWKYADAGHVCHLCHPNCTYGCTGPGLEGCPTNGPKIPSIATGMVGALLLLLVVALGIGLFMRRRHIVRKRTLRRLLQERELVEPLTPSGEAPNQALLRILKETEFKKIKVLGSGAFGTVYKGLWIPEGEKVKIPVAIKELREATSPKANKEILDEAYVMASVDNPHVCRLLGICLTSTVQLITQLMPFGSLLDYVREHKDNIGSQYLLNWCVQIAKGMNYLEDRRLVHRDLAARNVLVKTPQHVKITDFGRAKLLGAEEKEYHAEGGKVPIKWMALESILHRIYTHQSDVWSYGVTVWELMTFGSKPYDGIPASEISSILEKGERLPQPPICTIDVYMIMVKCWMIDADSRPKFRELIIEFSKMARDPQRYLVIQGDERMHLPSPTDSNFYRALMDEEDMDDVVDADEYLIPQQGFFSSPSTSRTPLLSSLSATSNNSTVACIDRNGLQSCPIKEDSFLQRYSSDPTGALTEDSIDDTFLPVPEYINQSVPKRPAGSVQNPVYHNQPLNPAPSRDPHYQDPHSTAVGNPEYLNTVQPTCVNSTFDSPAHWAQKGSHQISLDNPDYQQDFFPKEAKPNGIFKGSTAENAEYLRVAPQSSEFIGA
In short: as §2

EGFR wild type = target: T4, EGFR wild type (Homo sapiens, UniProt P00533); assay: Inhibition of EGFR wild type biochemical enzymatic activity (HTRF); details: EGFR WT, 1 mM ATP, 1 h, room temperature, read-out: IC50 (nM) @WT
T4 construct: purchased Carna Bio
T4 sequence (P00533 25-1210): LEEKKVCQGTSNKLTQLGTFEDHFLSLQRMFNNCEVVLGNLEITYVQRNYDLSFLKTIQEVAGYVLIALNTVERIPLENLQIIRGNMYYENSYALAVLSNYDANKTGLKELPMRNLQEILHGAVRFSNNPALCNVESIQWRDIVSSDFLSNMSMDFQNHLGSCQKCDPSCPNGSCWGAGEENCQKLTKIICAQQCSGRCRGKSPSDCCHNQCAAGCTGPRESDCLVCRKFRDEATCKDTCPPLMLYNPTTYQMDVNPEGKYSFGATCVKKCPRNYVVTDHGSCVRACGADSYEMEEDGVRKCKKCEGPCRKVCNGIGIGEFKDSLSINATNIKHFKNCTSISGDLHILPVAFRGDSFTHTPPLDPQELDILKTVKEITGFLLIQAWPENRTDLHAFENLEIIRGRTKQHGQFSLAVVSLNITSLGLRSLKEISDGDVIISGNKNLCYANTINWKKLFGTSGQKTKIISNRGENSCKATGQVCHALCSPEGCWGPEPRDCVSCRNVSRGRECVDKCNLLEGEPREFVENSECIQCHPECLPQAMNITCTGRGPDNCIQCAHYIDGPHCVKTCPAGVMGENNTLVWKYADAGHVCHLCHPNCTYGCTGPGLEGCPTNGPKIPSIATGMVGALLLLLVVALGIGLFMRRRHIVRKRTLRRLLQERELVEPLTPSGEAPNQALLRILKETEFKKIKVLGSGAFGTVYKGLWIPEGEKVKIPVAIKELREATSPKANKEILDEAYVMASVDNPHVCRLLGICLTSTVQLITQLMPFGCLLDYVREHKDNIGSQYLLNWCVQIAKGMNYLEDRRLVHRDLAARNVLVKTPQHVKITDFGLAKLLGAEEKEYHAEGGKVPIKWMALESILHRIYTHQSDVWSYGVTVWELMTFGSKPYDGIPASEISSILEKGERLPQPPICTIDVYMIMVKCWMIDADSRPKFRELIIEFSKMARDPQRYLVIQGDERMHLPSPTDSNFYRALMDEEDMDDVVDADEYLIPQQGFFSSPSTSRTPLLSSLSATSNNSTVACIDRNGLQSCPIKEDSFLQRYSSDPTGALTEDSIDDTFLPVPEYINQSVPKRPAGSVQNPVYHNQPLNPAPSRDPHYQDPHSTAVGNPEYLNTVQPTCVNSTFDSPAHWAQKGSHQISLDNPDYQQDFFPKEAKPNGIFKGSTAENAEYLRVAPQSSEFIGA
In short: as §2

EGFR (d746-750 C797S) = target: T5, EGFR (d746-750 C797S) (Homo sapiens, UniProt P00533, C797S/DEL746-750); assay: Inhibition of EGFR (d746-750 C797S) biochemical enzymatic activity (HTRF); details: EGFR Del19-C797S, 1 mM ATP, 1 h, room temperature, read-out: IC50 (nM) @Del19-C797S
T5 construct: purchased signalchem
T5 sequence (P00533 with tags, fused parts or gaps DEL746-750/C797S limits assumed): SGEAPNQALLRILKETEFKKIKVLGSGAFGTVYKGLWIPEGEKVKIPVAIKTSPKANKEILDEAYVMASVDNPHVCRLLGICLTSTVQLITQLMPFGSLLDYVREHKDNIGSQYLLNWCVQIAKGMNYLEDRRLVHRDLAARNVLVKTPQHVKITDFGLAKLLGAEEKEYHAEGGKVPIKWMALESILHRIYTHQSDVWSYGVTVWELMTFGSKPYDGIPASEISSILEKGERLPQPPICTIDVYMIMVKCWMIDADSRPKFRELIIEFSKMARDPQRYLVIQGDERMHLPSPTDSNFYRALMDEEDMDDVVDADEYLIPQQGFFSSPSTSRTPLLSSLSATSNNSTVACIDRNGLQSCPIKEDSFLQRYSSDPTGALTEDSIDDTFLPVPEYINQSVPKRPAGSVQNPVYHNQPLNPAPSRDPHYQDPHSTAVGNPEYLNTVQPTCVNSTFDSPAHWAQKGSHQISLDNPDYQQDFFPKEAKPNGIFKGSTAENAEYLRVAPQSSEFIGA
In short: as §2

EGFR Exon19Del = target: T6, EGFR Exon19Del (Homo sapiens, UniProt P00533, DEL746-750); assay: Inhibition of EGFR Exon19Del biochemical enzymatic activity (HTRF); details: EGFR Del19, 1 mM ATP, 1 h, room temperature, read-out: IC50 @Del19
T6 construct: purchased Carna Bio
T6 sequence (P00533 with tags, fused parts or gaps DEL746-750 limits assumed): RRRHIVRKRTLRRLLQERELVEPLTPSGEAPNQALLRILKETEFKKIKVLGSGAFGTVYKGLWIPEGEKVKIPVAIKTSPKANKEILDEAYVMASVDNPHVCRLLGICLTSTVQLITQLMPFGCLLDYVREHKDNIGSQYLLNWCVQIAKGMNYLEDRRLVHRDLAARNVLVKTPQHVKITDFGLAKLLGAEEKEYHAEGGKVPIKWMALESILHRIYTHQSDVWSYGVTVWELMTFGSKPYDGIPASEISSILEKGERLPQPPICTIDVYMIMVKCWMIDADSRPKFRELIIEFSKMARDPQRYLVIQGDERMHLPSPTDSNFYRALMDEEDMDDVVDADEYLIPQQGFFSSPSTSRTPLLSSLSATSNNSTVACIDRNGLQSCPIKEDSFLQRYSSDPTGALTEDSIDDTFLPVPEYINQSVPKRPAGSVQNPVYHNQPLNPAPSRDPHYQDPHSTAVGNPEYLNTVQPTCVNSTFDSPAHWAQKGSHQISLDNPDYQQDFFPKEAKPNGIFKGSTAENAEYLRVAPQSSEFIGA
In short: as §2

EGFR L858R/T790M = target: T7, EGFR L858R/T790M (Homo sapiens, UniProt P00533, L858R/T790M); assay: Inhibition of EGFR L858R/T790M biochemical enzymatic activity (HTRF); details: EGFR L858R-T790M, 1 mM ATP, 1 h, room temperature, read-out: IC50 (nM) @L858R-T790M
T7 construct: purchased Carna Bio
In short: as §2

[2] = target: T8, EGFR[T790M/C797S/d746-750] (Homo sapiens, UniProt P00533, C797S/DEL746-750/T790M); assay: Inhibition of EGFR[T790M/C797S/d746-750] biochemical enzymatic activity (HTRF); details: EGFR T790M-C797S-Del19, 1 mM ATP, 1 h, room temperature, read-out: IC50 (nM) @T790M - C797S - Del19
T8 construct: purchased Carna Bio
T8 sequence (P00533 with tags, fused parts or gaps DEL746-750/T790M/C797S limits assumed): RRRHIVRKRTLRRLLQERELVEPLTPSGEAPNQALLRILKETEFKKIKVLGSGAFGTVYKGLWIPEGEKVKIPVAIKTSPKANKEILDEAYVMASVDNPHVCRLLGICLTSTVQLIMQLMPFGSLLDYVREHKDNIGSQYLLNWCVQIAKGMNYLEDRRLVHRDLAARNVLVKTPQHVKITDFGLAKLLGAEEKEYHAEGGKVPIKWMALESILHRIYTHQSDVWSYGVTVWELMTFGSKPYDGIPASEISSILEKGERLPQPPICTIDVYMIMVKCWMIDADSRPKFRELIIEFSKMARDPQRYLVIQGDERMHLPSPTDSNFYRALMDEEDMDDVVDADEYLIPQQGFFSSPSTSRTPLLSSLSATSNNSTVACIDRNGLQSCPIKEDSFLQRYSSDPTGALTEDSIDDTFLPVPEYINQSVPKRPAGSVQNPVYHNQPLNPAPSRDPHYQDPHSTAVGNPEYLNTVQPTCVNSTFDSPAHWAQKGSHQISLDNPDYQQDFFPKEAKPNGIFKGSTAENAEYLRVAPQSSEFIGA
In short: as §2

EGFR L858R = target: T9, EGFR L858R (Homo sapiens, UniProt P00533, L858R); assay: Inhibition of EGFR L858R biochemical enzymatic activity (HTRF); details: 1 mM ATP, 1 h, room temperature, read-out: IC50 (nM) @L858R
T9 construct: purchased Carna Bio
In short: as §2

[3] = BaF3 cells, EGFR DEL19-C797S, read-out: DEL19-C797S/BaF3 GI50
[4] = BaF3 cells, EGFR DEL19-T790-C797S, read-out: DEL19-T790-C797S/BaF3 GI50
[5] = BaF3 cells, EGFR L858R, read-out: L858R/BaF3 GI50
[6] = BaF3 cells, EGFR L858R-C797S, read-out: L858R-C797S/BaF3 GI50
[7] = BaF3 cells, EGFR L858R-T790-C797S, read-out: L858R-T790-C797S/BaF3 GI50
[8] = BaF3 cells, EGFR L858R-T790M, read-out: L858R-T790M/BaF3 GI50
[9] = EGFR DEL19-T790M, read-out: DEL19-T790M GI50
[10] = Homo sapiens, A-431, A-431 cells
[11] = Mus musculus, BaF3, 72 h, BaF3 cells, EGFR DEL19-C797S, read-out: DEL19-C797S/BaF3 GI50
[12] = Mus musculus, BaF3, 72 h, BaF3 cells, EGFR DEL19-T790-C797S, read-out: DEL19-T790-C797S/BaF3 GI50
[13] = Mus musculus, BaF3, 72 h, BaF3 cells, EGFR L858R, read-out: L858R/BaF3 GI50
[14] = Mus musculus, BaF3, 72 h, BaF3 cells, EGFR L858R-C797S, read-out: L858R-C797S/BaF3 GI50
[15] = Mus musculus, BaF3, 72 h, BaF3 cells, EGFR L858R-T790-C797S, read-out: L858R-T790-C797S/BaF3 GI50
[16] = Mus musculus, BaF3, 72 h, BaF3 cells, EGFR L858R-T790M, read-out: L858R-T790M/BaF3 GI50
[17] = Mus musculus, BaF3, 72 h, EGFR DEL19-T790M, read-out: DEL19-T790M GI50

| SMILES | GI50 (PC-9) | GI50 [1, 3] | GI50 [1, 4] | GI50 [1, 5] | GI50 [1, 6] | GI50 [1, 7] | GI50 [1, 8] | GI50 [1, 9] | IC50 (EGFR[T790M/C797S/L858R]) | GI50 (A-431; [10]) | IC50 (EGFR Exon19Del/T790M) | IC50 (EGFR (C797S L858R)) | IC50 (EGFR wild type) | IC50 (EGFR (d746-750 C797S)) | IC50 (EGFR Exon19Del) | IC50 (EGFR L858R/T790M) | IC50 [2] | IC50 (EGFR L858R) | GI50 (PC-9; Homo sapiens, PC-9, 72 h) | GI50 [1, 11] | also measured |
| --- | --- | --- | --- | --- | --- | --- | --- | --- | --- | --- | --- | --- | --- | --- | --- | --- | --- | --- | --- | --- | --- |
| COCCN(C)c1ccc2nc3n(c2c1)C12CCC(CN(CCOc4c(cnn4C)-c4cc(cn(C)c4=O)C(=O)N3)C1)C2 (single isomer, unassigned) [Example A90A] | 2100 nM | 128 nM | 393 nM | 540 nM | 249 nM | 721 nM | 977 nM | 321 nM | > 5000 nM | 4270 nM | > 5000 nM | > 5000 nM | > 5000 nM | 749 nM | 1710 nM | > 5000 nM | > 5000 nM | > 5000 nM |  |  |  |
| CN1CCN(C2CCN(c3ccc4nc5n(c4c3)C34CCC(CN(CCOc6c(cnn6C)-c6cc(cn(C)c6=O)C(=O)N5)C3)C4)C2)CC1 (single isomer, unassigned) [Example A80B1, 15,21-Dimethyl-5-[3-(4-methylpiperazin-1-yl)pyrrolidin-1-yl]-23-oxa-2,9,11,15,20,21,26-heptaazaheptacyclo[24.4.1.1^{1,28}.1^{13,17}.0^{2,10}.0^{3,8}.0^{18,22}]tritriaconta-3,5,7,9,13,17(33),18(22),19-octaene-12,16-dione] | 11 nM | 0.55 nM | 1 nM | 1.2 nM | 3 nM | 1 nM | 4.2 nM | 1 nM | 6.7 nM |  | 6.2 nM | 8.8 nM | 9.3 nM | 3.1 nM | 3.2 nM | 7.8 nM | 5.1 nM | 7.2 nM |  |  | GI50 (A-431; A-431 cells): 6140 nM |
| C[C@@H]1CCCOc2c(cnn2C)-c2cc(cn(C)c2=O)C(=O)Nc2nc3ccc(N4CC5(CN(C)C5)C4)cc3n2C1 [Example A40] |  |  |  |  |  |  |  |  | 5.2 nM | 642 nM | 4.5 nM | 6.7 nM | 71 nM | 2.3 nM | 4.4 nM | 6.1 nM | 4.3 nM | 11 nM | 17 nM | 1.7 nM | GI50 [1, 12]: 4.2 nM; GI50 [1, 13]: 4 nM; GI50 [1, 14]: 5.4 nM; GI50 [1, 15]: 4.7 nM; GI50 [1, 16]: 17 nM; GI50 [1, 17]: 7.7 nM |
| C[C@@H]1CCCOc2c(cnn2C)-c2cc(cn(C)c2=O)C(=O)Nc2nc3ccc(N4CCC5(CN(C)C5)C4)cc3n2C1 [Example A43] |  |  |  |  |  |  |  |  | 7.1 nM | 508 nM | 3.7 nM | 8.9 nM | 295 nM | 2.2 nM | 4.5 nM | 13 nM | 4.4 nM | 21 nM | 5.7 nM | 1 nM | GI50 [1, 12]: 3.6 nM; GI50 [1, 13]: 2.6 nM; GI50 [1, 14]: 3.4 nM; GI50 [1, 15]: 2.5 nM; GI50 [1, 16]: 9.5 nM; GI50 [1, 17]: 5.2 nM |
| CC(C)N1CCN(c2ccc3nc4n(c3c2)C23CCC(CN(CCOc5c(cnn5C)-c5cc(cn(C)c5=O)C(=O)N4)C2)C3)CC1 (single isomer, unassigned) [Example A108A] | 320 nM | 84 nM | 204 nM | 202 nM | 123 nM | 223 nM | 369 nM | 227 nM | > 5000 nM |  | > 5000 nM | 942 nM | > 5000 nM | 268 nM | 293 nM | > 5000 nM | 3170 nM | 577 nM |  |  | GI50 (A-431; A-431 cells): 1380 nM |
| C[C@@H]1CCCOc2c(cnn2C)-c2cc(cn(C)c2=O)C(=O)Nc2nc3ccc(N4CC5(CCCN5C)C4)cc3n2C1 [Example A44] |  |  |  |  |  |  |  |  | 8.8 nM | 232 nM | 3.3 nM | 15 nM | 236 nM | 3 nM | 4.9 nM | 15 nM | 3.1 nM | 34 nM | 14 nM | 2 nM | GI50 [1, 12]: 14 nM; GI50 [1, 13]: 4.4 nM; GI50 [1, 14]: 7 nM; GI50 [1, 15]: 5.3 nM; GI50 [1, 16]: 27 nM; GI50 [1, 17]: 16 nM |
